“And” between values parts separate entries of the source, which are not always exact repeats. Identical values can stand only once. “Also recorded” adds a separate entry of the source.
What was measured:
[1] = system: HIV-1 RT mutant resistance test vector M41L-T69SSA-T215Y-RTV; assay: Phenotypic susceptibility assay, site directed RTV M41L+T69SSA+T215Y; type: cell-based; details: for Average fold reduction in susceptibility: RTV with 41 + 69 + 215 (M41L, T69SSA, T215Y), 2 replicates; for effect on susceptibility (words): RTV with M41L+T69SSA+T215Y
Protocol: (§1) Resistance tests were carried out with resistance test vectors using two host cell types. Resistance test vector viral particles were produced by a first host cell (the resistance test vector host cell) that was prepared by transfecting a packaging host cell with the resistance test vector and the packaging expression vector. The resistance test vector viral particles were then used to infect a second host cell (the target host cell) in which the expression of the indicator gene is measured.
(§2) The resistance test vectors containing a functional luciferase gene cassette were constructed and host cells were transfected with the resistance test vector DNA. The resistant test vectors contained patient-derived reverse transcriptase and protease sequences that were either susceptible or resistant to the antiretroviral agents, such as nucleoside reverse transcriptase inhibitors, non-nucleoside reverse transcriptase inhibitors and protease inhibitors. The resistance test vector viral particles produced by transfecting the resistance test vector DNA into host cells, either in the presence or absence of protease inhibitors, were used to infect target host cells grown either in the absence of NRTI or NNRTI or In the presence of increasing concentrations of the drug. The amount of luciferase activIty produced in infected target host cells in the presence of drug was compared to the amount of luciferase produced in infected target host cells in the absence of drug. Drug resistance was measured as the amount of drug required to inhibit by 50% the luciferase activity detected in the absence of drug (Inhibitory concentration 50%, IC50). The IC50 values were determined by plotting percent drug inhibition vs. log 10 drug concentration.
(§3) Host cells were seeded in 10-cm-diameter dishes and were transfected several days after plating with resistance test vector plasmid DNA and the envelope expression vector. Transfections were performed using a calcium-phosphate precipitation procedure. The cell culture media containing the DNA precipitate was replaced with fresh medium, from one to 24 hours, after transfection. Cell culture media containing resistance test vector viral particles was harvested one to four days after transfection and was passed through a […] filter before being stored at −80° C. HIV capsid protein (p24) levels in the harvested cell culture media were determined by an EIA method as described by the manufacturer (SIAC; Frederick, Md.). Before infection, target cells (293 and 293/T) were plated in cell culture media. Control infections were performed using cell culture media from mock transfections (no DNA) or transfections containing the resistance test vector plasmid DNA without the envelope expression plasmid. One to three or more days after infectIon the media was removed and cell lysis buffer (Promega) was added to each well. Cell lysates were assayed for luciferase activity (FIG. 3). The inhibitory effect of the drug was determined using the following equation:
(§4) % luciferase inhibition=1−(RLUluc[drug]÷RLUluc)×100
(§5) where RLUluc [drug] is the relative light unit of luciferase activity in infected cells in the presence of drug and RLUluc is the Relative Light Unit of luciferase activity in infected cells in the absence of drug. IC50 values were obtained from the sigmoidal curves that were generated from the data by plotting the percent inhibition of luciferase activity vs. the log 10 drug concentration. The drug inhibition curves are shown in (FIG. 3).
(§6) Genotypic changes that are observed to correlate with changes in phenotypic patterns of drug susceptibility are evaluated by construction of resistance test vectors containing the specific mutation on a defined, wild-type (drug susceptible) genetic background. Mutations may be incorporated alone and/or in combination with other known drug resistance mutations that are thought to modulate the susceptibility of HIV to a certain drug or class of drugs. […]

[2] = system: HIV-1 RT mutant resistance test vector A62V+T69SSA; assay: Phenotypic susceptibility assay, site directed RTV A62V+T69SSA; type: cell-based; details: for Average fold reduction in susceptibility: RTV with 62 + 69 (A62V+T69SSA), 4 replicates; for effect on susceptibility (words): RTV with A62V+T69SSA, compared with T69SSA alone
Protocol: as §1, §2, §3, §4, §5, §6

[3] = system: HIV-1 RT mutant resistance test vector A62V; assay: Phenotypic susceptibility assay, site directed RTV A62V; type: cell-based; details: RTV with A62V vs wild type RTV; for Average fold reduction in susceptibility: 3 replicates
Protocol: as §1, §2, §3, §4, §5, §6

[4] = system: HIV-1 RT mutant resistance test vector M41L+A62V+T69SSA+M184V+T215Y; assay: Phenotypic susceptibility assay, site directed RTV M41L+A62V+T69SSA+M184V+T215Y; type: cell-based; details: for Average fold reduction in susceptibility: RTV with 41 + 62 + 69 + 184 + 215, 2 replicates; for effect on susceptibility (words): RTV with M41L+A62V+T69SSA+M184V+T215Y, addition of M184V to the 4 mutations
Protocol: as §1, §2, §3, §4, §5, §6

[5] = system: HIV-1 RT mutant resistance test vector T69SSA; assay: Phenotypic susceptibility assay, site directed RTV T69SSA; type: cell-based; details: RTV with T69SSA vs wild type RTV; for Average fold reduction in susceptibility: 3 replicates
Protocol: as §1, §2, §3, §4, §5, §6

[6] = system: HIV-1 RT mutant resistance test vector 41 + 62 + 69 + 75M + 210 + 215; assay: Phenotypic susceptibility assay, site directed RTV 41 + 62 + 69 + 75M + 210 + 215; type: cell-based; details: RTV with 41 + 62 + 69 + 75M + 210 + 215; 1 replicate
Protocol: as §1, §2, §3, §4, §5, §6

[7] = system: HIV-1 RT mutant resistance test vector 41 + 184 + 215; assay: Phenotypic susceptibility assay, site directed RTV 41 + 184 + 215; type: cell-based; details: RTV with 41 + 184 + 215; 3 replicates
Protocol: as §1, §2, §3, §4, §5, §6

[8] = system: HIV-1 RT mutant resistance test vector A62V+T69SSA+V75I; assay: Phenotypic susceptibility assay, site directed RTV A62V+T69SSA+V75I; type: cell-based; details: for Average fold reduction in susceptibility: RTV with 62 + 69 + 751 (A62V, T69SSA, V75I), 1 replicate; for effect on susceptibility (words): RTV with A62V+T69SSA+V75I
Protocol: as §1, §2, §3, §4, §5, §6

[9] = system: HIV-1 RT mutant resistance test vector A62V-T69SSA-L74V-RTV; assay: Phenotypic susceptibility assay, site directed RTV A62V-T69SSA-L74V; type: cell-based; details: for Average fold reduction in susceptibility: RTV with 62 + 69 + 74V, 1 replicate
Protocol: as §1, §2
as §3, with “Cell lysates were assayed for luciferase activity (FIG. 3).” left out
as §4
as §5, with “The drug inhibition curves are shown in (FIG. 3).” left out

[10] = system: ZDV-resistant HIV isolates; details: cited from earlier work

Row | SMILES | Average fold reduction in susceptibility [1] | Average fold reduction in susceptibility [2] | Average fold reduction in susceptibility [3] | Average fold reduction in susceptibility [4] | effect on susceptibility (words) [4] | Average fold reduction in susceptibility [5] | Average fold reduction in susceptibility [6] | Average fold reduction in susceptibility [7] | Average fold reduction in susceptibility [8] | effect on susceptibility (words) [1] | effect on susceptibility (words) ([9]; L74V introduced with A62V+T69SSA) | effect on susceptibility (words) [2] | effect on susceptibility (words) [3] | effect on susceptibility (words) [5] | effect on susceptibility (words) [8] | cross-resistance of ZDV-resistant strains [10] | Average fold reduction in susceptibility [9]
1 | Nc1nc(NC2CC2)c2ncn([C@H]3C=C[C@@H](CO)C3)c2n1 [ABC, abacavir] | 9.69 fold | 2.71 fold | 0.59 fold | 11.73 fold | no effect on susceptibility to ddC or abacavir | 2.52 fold | 15.53 fold | 3.02 fold | 2.56 fold |  |  |  |  |  |  |  | 
2 | Cc1cn([C@H]2C[C@H](N=[N+]=[N-])[C@@H](CO)O2)c(=O)[nH]c1=O [AZT, zidovudine] | 160 fold and 140 fold and 141.71 fold | 6 fold and 7 fold and approximately six-fold and 6.87 fold | 1.25 fold | 43.86 fold | increase in the susceptibility to AZT; also recorded: suppressed the reduced AZT susceptibility; also recorded: more susceptible | approximately two-fold and 1.98 fold | >1000 fold | 2.77 fold | 2 fold and 0.71 fold | significant decrease in both d4T and AZT susceptibility | shift of the susceptibility back to wild-type | further reduce AZT susceptibility | slight increases in susceptibility to AZT; also recorded: had no effect on AZT susceptibility; also recorded: had no affect on AZT susceptibility | small but significant change in susceptibility; also recorded: reduced AZT susceptibility slightly | completely suppressed the reduced AZT susceptibility; also recorded: completely suppressed the six-fold AZT resistance |  | 
3 | Cc1cn([C@H]2C=C[C@@H](CO)O2)c(=O)[nH]c1=O [d4T, stavudine] | 5 fold and 5.20 fold | 1.66 fold | 0.84 fold | 3.98 fold | no effect on the susceptibility to d4T; also recorded: did reduce d4T susceptibility more than the T69SSA mutation alone; also recorded: more susceptible | 2 fold and less than two-fold and 1.58 fold | 13.18 fold | 1.18 fold | 1.40 fold | significant decrease in both d4T and AZT susceptibility |  | no effect on the susceptibility to d4T; also recorded: did not reduce d4T susceptibility more than the T69SSA mutation alone | no differences in their susceptibility to d4T; also recorded: did not reduce d4T susceptibility; also recorded: had no affect on d4T susceptibility | did not reduce d4T susceptibility | did not reduce d4T susceptibility more than the T69SSA mutation alone | Cross-resistance | 1.5 fold and 1.50 fold
4 | Nc1ccn([C@H]2CC[C@@H](CO)O2)c(=O)n1 [ddC, zalcitabine] | 1.41 fold | 1.74 fold | 0.74 fold | 2.90 fold | no effect on susceptibility to ddC or abacavir | 1.55 fold | 2.09 fold | 1.73 fold | 1.89 fold |  |  |  |  |  |  | no evidence that mutations selected for during ZDV monotherapy influence sensitivity | 1.8 fold and 1.80 fold
5 | O=c1[nH]cnc2c1ncn2[C@H]1CC[C@@H](CO)O1 [ddI, didanosine] | 2.02 fold | 1.54 fold | 0.84 fold | 2.55 fold | more susceptible | 1.32 fold | 3.10 fold | 1.35 fold | 1.17 fold |  |  |  |  |  |  | no evidence that mutations selected for during ZDV monotherapy influence sensitivity | 

From patent publication US6489098B1, “Means and methods for monitoring nucleoside reverse transcriptase inhibitor antiretroviral therapy and guiding therapeutic decisions in the treatment of HIV/AIDS” (ViroLogic, Inc., priority 1998, dated 2002)
